From patent publication US6596712B2, “Treatment of carcinomas using squalamine in combination with other anti-cancer agents or modalities” (Genaera Corporation, priority 1996, dated 2003)

Assays:
[1] = tested on: capillary beds of young chick embryos; test: Capillary regression in chick embryo capillary beds; assay type: in vivo; conditions: one time dose 100 ng
Procedure: A one time dose (100 ng) of squalamine was applied to capillary beds of young chick embryos that were 2-3 days old. After five minutes, this dose of squalamine appeared to have little effect on the capillary beds.
The capillary bed also was observed after sixty minutes. At this time, it was noted that some of the capillary vessels were beginning to re-appear, but only the more major vessels were re-appearing. The small vessels were not re-appearing at that time. Four to five days after the one time squalamine treatment, the effect of the squalamine dose was no longer apparent, but newly formed capillaries in the embryos remained susceptible to squalamine induced regression for a limited time while they were newly formed.
From this test, applicants concluded that squalamine-induced capillary regression is reversible, at least with respect to certain capillaries.

[2] = biological target: T1, rabbit NHE3 with 76 C-terminal amino acids removed (Oryctolagus cuniculus, UniProt P26432); test: Rabbit NHE3 with the 76 C-terminal amino acids removed; assay type: cell-based
T1 construct: expressed in transfected cells
T1 sequence (P26432 30-756): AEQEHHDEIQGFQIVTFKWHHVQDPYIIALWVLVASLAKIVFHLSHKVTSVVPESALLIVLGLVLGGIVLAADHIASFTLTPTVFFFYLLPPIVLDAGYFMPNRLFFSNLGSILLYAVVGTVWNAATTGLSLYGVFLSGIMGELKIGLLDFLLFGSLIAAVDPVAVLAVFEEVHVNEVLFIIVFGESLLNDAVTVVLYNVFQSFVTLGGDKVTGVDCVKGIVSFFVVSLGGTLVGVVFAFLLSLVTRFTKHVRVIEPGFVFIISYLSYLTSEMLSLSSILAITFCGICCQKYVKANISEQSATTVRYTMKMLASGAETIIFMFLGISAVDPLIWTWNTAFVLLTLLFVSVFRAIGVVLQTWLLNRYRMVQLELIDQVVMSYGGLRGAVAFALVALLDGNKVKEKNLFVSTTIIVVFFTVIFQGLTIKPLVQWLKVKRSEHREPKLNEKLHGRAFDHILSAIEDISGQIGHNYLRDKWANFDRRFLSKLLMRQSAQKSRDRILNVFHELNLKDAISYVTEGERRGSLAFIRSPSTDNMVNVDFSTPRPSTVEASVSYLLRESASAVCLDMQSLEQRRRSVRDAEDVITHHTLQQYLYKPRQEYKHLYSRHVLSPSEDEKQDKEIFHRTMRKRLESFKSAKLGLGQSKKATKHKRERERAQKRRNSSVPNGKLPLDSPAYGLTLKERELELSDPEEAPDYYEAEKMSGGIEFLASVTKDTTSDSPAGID
Description: This NHE3 inhibiting activity of squalamine has been mapped to the 76 C-terminal amino acids on the NHE3 molecule. […] Thus, the 76 C-terminal amino acids of NHE3 are the site of inhibition by squalamine.

[3] = tested on: tumor induced capillary formation in rabbit cornea; test: Rabbit corneal micropocket assay (VX2 carcinoma stimulus); assay type: in vivo; conditions: for reduction of Angiogenesis Index (AI) vs untreated eyes: pellet 20% squalamine
Description: In determining whether a compound is antiangiogenic, the rabbit corneal micropocket assay is an accepted standard test. In this test, an incision is made in one rabbit cornea, and a stimulus is placed in the incision. The stimulus is used to induce blood vessel formation in the normally avascular corneal region. As one example, a solid tumor in a polymeric matrix can be placed in the cornea as the stimulus because the tumor will release a number of angiogenic growth factors to stimulate new capillary growth. The tumor-derived angiogenic growth factors stimulate the endothelial cells at the scleral junction in the eye to initiate blood vessel growth toward the stimulus. A second polymer pellet (e.g., an ethylene/vinyl acetate copolymer) is placed between the scleral junction and the stimulus. This polymer pellet is either empty (a negative control test pellet), or it contains a compound whose antiangiogenic characteristics are to be tested. The polymer pellet is used to provide a controlled release of the material to be studied. Because of the avascular cornea background in the rabbit cornea, one can visually assess the results qualitatively. In addition, the number of blood vessels can be counted and their length, etc., can be measured to provide a more quantitative evaluation of the results.
The VX2 rabbit carcinoma was implanted in 26 rabbit eyes, in the normally avascular corneal region, to act as an angiogenesis stimulus. […] The eyes were examined weekly using a slit lamp stereomicroscope for three weeks after tumor implantment, and the Angiogenesis Index (“AI”) was calculated (this calculation will be described in more detail below with reference to FIG. 8). […]
To provide a quantitative evaluation, the Angiogenesis Index (“AI”) of each eye was determined. […]
The vessel length (“Lvessel”) was then measured in each cornea. The vessel length is the length of the longest vessel measured from the cornea-scleral junction to the distal edge of the longest vessel growth. The Angiogenesis Index then is determined from these measurements by the following equation: [formula]

[4] = Squalamine toxicity test in rats; assay type: in vivo; conditions: 20 mg/kg/day i.p. for more than 30 days; maintained up to 200 days
Procedure: A squalamine toxicity test was performed in another animal model. Conventional cytotoxic chemical compounds are quite toxic. […] For this reason, it is administered only one time to a patient. The use of BCNU is described on pages 304 and 305 of Calabresi in Medical Oncology, supra. In order to test the toxicity of squalamine, a group of rats was given a daily squalamine dose of 20 mg/kg/day (i.p.) for more than 30 days and maintained for up to 200 days following dosing.

parental 2008 cell line = test: Human ovarian tumor 2008 xenograft with cisplatin; assay type: in vivo, female Swiss nude mice; conditions: cisplatin single dose 4 mg/kg, squalamine 2 mg/kg, days 1-10
Procedure: Human ovarian tumor cells were injected subcutaneously (5×10^7 cells per animal) in the mid-back region of female Swiss nude mice. The human ovarian tumors were either the parental 2008 cell line (cf. R. J. Pietras et al., Oncogene 9, 1829-1838 (1994)) or a transfected variant overexpressing the Her-2/neu receptor. The overexpression of the Her-2/neu receptor is considered to make the resulting xenograft tumors more angiogenic and less responsive to chemotherapy. After one week, animals were randomized to groups receiving no treatment (controls), a single dose of cisplatin (4 mg/kg), daily treatment with squalamine (2 mg/kg, days 1-10) or cisplatin plus squalamine. The growth of tumors was then scored on day 28 following initiation of chemotherapy. The results were very similar with the parental 2008 tumor and the transfected variant overexpressing the Her-2/neu receptor. […] In this xenograft model, the [day 28 mean treated tumor weight increase divided by the day 28 mean control tumor weight increase (T/C)] x 100% was subtracted from 100% to give the tumor growth inhibition (TGI) value for each group.

NHE1 = NHE1 (Homo sapiens, UniProt P19634); test: NHE1 activity in unstimulated melanoma cells; assay type: cell-based; design: endogenous in cells
NHE1, sequence (P19634 whole entry, species assumed, canonical isoform): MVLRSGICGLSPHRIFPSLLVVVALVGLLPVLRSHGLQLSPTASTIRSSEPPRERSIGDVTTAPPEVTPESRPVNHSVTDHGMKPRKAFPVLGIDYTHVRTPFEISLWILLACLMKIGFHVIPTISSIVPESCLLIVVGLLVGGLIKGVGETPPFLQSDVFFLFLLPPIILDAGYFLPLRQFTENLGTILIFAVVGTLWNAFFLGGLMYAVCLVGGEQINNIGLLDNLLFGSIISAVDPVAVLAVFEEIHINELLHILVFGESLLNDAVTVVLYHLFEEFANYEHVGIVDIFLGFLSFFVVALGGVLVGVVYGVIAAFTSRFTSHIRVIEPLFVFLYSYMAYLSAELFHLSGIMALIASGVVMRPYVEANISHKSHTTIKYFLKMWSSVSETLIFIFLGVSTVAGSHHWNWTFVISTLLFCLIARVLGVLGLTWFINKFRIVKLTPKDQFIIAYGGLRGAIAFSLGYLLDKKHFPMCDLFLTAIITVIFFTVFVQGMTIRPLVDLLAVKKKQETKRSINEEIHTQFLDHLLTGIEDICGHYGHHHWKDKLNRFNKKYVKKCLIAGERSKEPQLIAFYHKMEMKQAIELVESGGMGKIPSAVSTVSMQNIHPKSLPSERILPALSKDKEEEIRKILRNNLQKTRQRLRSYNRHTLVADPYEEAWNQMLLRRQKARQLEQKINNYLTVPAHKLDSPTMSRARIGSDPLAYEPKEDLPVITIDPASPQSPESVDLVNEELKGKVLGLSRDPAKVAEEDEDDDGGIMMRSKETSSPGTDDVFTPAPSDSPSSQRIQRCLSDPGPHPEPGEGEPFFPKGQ
Procedure: The effect of squalamine on NHE activity was measured to determine which isoforms of NHE were affected by squalamine. NHE activity can be measured under various different cellular conditions. Acid loading a cell activates all of the antiporters and permits measurement of NHE. NHE activity also can be measured after growth factor stimulation of the cell. Additionally, the NHE activity can be measured when the cell is in an unstimulated state, because the antiporters, even if unstimulated, continue to function at a slow, but non-zero rate. In each of these cellular conditions, NHE activity usually is measured in the absence of bicarbonate.
NHE3 in particular is relatively resistant to inhibition by the amilorides.

In the case of `CC(C)[C@@H](CC[C@@H](C)[C@H]1CC[C@H]2[C@@H]3[C@H](O)C[C@H]4C[C@@H](NCCCNCCCCN)CC[C@]4(C)[C@H]3CC[C@]12C)OS(=O)(=O)O` [Squalamine, squalamine], the “effect on capillary beds” value ([1]; after five minutes) is reported as “little effect”, the “effect on capillary beds” value ([1]; after forty minutes) is reported as “additional capillary regression was observed” and the “effect on capillary beds” value ([1]; in twenty minutes) is reported as “the capillary bed appeared to be disappearing”. For the same compound, the “effect on activity of NHE3 lacking the 76 C-terminal amino acids” value [2] was “virtually no effect”, the “reduction of Angiogenesis Index (AI) vs untreated eyes” value ([3]; Day 14) was 37% and the “reduction of Angiogenesis Index (AI) vs untreated eyes” value ([3]; Day 21) was 43%. The “vasculature of tumors in sectioned corneas” value ([3]; histology after the test) was “essentially no vasculature associated with those tumors”, the “toxicity, health of animals” value [4] was “remained healthy” and the “Day 28 Mean Tumor Size” value (parental 2008 cell line) was 2254 mm^3. For the same compound, the “Tumor Growth Inhibition (TGI) Index” value (parental 2008 cell line; day 28) was 41% and the “NHE1 activity in unstimulated melanoma cells” value (NHE1) was “substantially down regulates the activity of the antiporter”.
